Data: ChEMBL document CHEMBL5149986, “Spliceostatins and Derivatives: Chemical Syntheses and Biological Properties of Potent Splicing Inhibitors” (J Nat Prod, 2021)

Assays:
HCT-116 = experiment: Cytotoxicity against human HCT-116 cells assessed as inhibition in cell growth; assay type: functional, cell-based
L1210 = experiment: Cytotoxicity against mouse L1210 cells assessed as inhibition in cell growth; assay type: functional, cell-based
HCT-116/VM46 = experiment: Cytotoxicity against human HCT116/VM46 cells assessed as inhibition in cell growth; assay type: functional, cell-based
[1] = Inhibition of pre-mRNA splicing in human HeLa nuclear extract in presence of ATP; assay type: cell-free
[2] = Cytotoxicity against human Jurkat-TAg cells assessed as cell growth inhibition measured after 48 hrs; assay type: functional, cell-based
MCF7 = experiment: Cytotoxicity against human MCF7 cells incubated for 7 to 10 days by MTS assay; assay type: functional; conditions: time 7-10 day
MES-SA/Dx5 = experiment: Cytotoxicity against human MES-SA/Dx5 cells assessed as inhibition in cell growth; assay type: functional, cell-based
MES-SA = experiment: Cytotoxicity against human MES-SA cells assessed as inhibition in cell growth; assay type: functional, cell-based
[3] = Cytotoxicity against HEK293T cells assessed as inhibition in cell growth; assay type: toxicity, cell-based, HEK-293T; conditions: human
HeLa = experiment: Potency index, ratio of test compound IC50 to Spliceostatin A IC50 for inhibition of pre-mRNA splicing in human HeLa nuclear extract in presence of ATP

Row | Structure (SMILES) | IC50 (MES-SA/Dx5) | IC50 (MES-SA) | IC50 [3] | also measured
1 | CC(/C=C/[C@H]1OC(C)(C)C[C@@]2(CO2)[C@@H]1O)=C\C[C@@H]1O[C@H](C)[C@H](NC(=O)/C=C\[C@H](C)OC(=O)N2CCCCC2)C[C@@H]1C | – | – | – | IC50 (HCT-116): 0.68 nM; IC50 (L1210): 0.6 nM; IC50 (HCT-116/VM46): 0.59 nM
2 | CO[C@]1(C)C[C@]2(CO2)[C@@H](O)[C@@H](/C=C/C(C)=C/C[C@@H]2O[C@H](C)[C@H](NC(=O)/C=C\[C@H](C)OC(C)=O)C[C@@H]2C)O1 | – | – | – | IC50 [1]: 1500 nM
3 | CC(/C=C/[C@H]1OC(C)(C)C[C@@]2(CO2)[C@@H]1O)=C\C[C@@H]1O[C@H](C)[C@H](NC(=O)/C=C\[C@H](C)OC(=O)N2CCOCC2)C[C@@H]1C | – | – | – | IC50 (HCT-116): 0.49 nM; IC50 (L1210): 7.8 nM; IC50 (HCT-116/VM46): 0.55 nM
4 | CC(=O)O[C@@H](C)/C=C\C(=O)N[C@@H]1C[C@H](C)[C@H](C/C=C(C)/C=C/[C@H]2O[C@](C)(O)C[C@@]3(CO3)[C@@H]2O)O[C@@H]1C | – | – | – | IC50 [2]: 2 nM; GI50 (MCF7): 1.1 nM; IC50 [1]: 50 nM
5 | CO[C@]1(C)C[C@@]2(CO2)[C@H](O)[C@@H](/C=C/C(C)=C/C[C@@H]2O[C@H](C)[C@@H](NC(=O)/C=C\[C@H](C)OC(C)=O)C[C@@H]2C)O1 | – | – | – | IC50 [1]: 1000 nM
6 | CC(=O)O[C@@H](C)/C=C\C(=O)N[C@H]1C[C@H](C)[C@H](C/C=C(C)/C=C/[C@H]2O[C@](C)(O)C[C@@]3(CO3)[C@@H]2O)O[C@@H]1C | – | – | – | IC50 [1]: 1000 nM
7 | CO[C@@H]1C[C@@]2(CO2)[C@H](O)[C@@H](/C=C/C(C)=C/C[C@@H]2O[C@H](C)[C@H](NC(=O)/C=C\[C@H](C)NC(=O)C(C)C)C[C@@H]2C)O1 | 384 nM | 6.16 nM | 0.058 nM | –
8 | CC(=O)O[C@@H](C)/C=C\C(=O)N[C@H]1C[C@H](C)[C@H](C/C=C(C)/C=C/[C@H]2O[C@](C)(O)C[C@]3(CO3)[C@H]2O)O[C@@H]1C | – | – | – | IC50 [1]: 20000 nM
9 | CC(/C=C/[C@H]1OC(C)(C)C[C@@]2(CO2)[C@@H]1O)=C\C[C@@H]1O[C@H](C)[C@H](NC(=O)/C=C\[C@H](C)OC(=O)N2CCSCC2)C[C@@H]1C | – | – | – | IC50 (HCT-116): 0.48 nM; IC50 (L1210): 0.51 nM; IC50 (HCT-116/VM46): 0.52 nM
10 | CO[C@]1(C)C[C@@]2(CO2)[C@H](O)[C@@H](/C=C/C(C)=C/C[C@@H]2O[C@H](C)[C@H](NC(=O)/C=C\[C@H](C)OC(C)=O)C[C@@H]2C)O1 | – | – | – | IC50 [1]: 10 nM
11 | CC(=O)O[C@@H](C)/C=C\C(=O)N[C@@H]1C[C@H](C)[C@H](C/C=C(C)/C=C/[C@H]2O[C@](C)(O)C[C@]3(CO3)[C@H]2O)O[C@@H]1C | – | – | – | IC50 [1]: 35000 nM
12 | CC(=O)O[C@@H](C)/C=C\C(=O)N[C@@H]1C[C@H](C)[C@H](C/C=C(C)/C=C/[C@H]2O[C@H](CC(=O)OC(C)(C)C)C[C@@](O)(CCl)[C@@H]2O)O[C@@H]1C | 5.16 nM | 14.9 nM | 0.033 nM | –
13 | CC(=O)O[C@@H](C)/C=C\C(=O)N[C@@H]1C[C@H](C)[C@H](C/C=C(C)/C=C/[C@H]2O[C@H](CC(C)(C)O)C[C@@]3(CO3)[C@@H]2O)O[C@@H]1C | 2.96 nM | 0.64 nM | 0.08 nM | –
14 | CC(=O)O[C@@H](C)/C=C\C(=O)N[C@@H]1C[C@H](C)[C@H](C/C=C(C)/C=C/[C@H]2O[C@H](CCNC(=O)OC(C)(C)C)C[C@@]3(CO3)[C@@H]2O)O[C@@H]1C | 1.8 nM | 0.13 nM | 0.004 nM | –
15 | CC(=O)O[C@@H](C)/C=C\C(=O)N[C@@H]1C[C@H](C)[C@H](C/C=C(C)/C=C/[C@H]2O[C@H](C)C[C@@]3(CO3)[C@@H]2O)O[C@@H]1C | 0.56 nM | 0.55 nM | 0.1 nM | –
16 | CC(=O)O[C@@H](C)/C=C\C(=O)N[C@@H]1C[C@H](C)[C@H](C/C=C(C)/C=C/[C@H]2O[C@H](CC(=O)O)C[C@@](O)(CCl)[C@@H]2O)O[C@@H]1C [THAILANSTATIN B] | > 1000 nM | 856 nM | 194 nM | –
17 | CO[C@@H]1C[C@@]2(CO2)[C@H](O)[C@@H](/C=C/C(C)=C/C[C@@H]2O[C@H](C)[C@H](NC(=O)/C=C\[C@H](C)OC(=O)N3CCCCC3)C[C@@H]2C)O1 | 3.35 nM | 3.71 nM | 0.11 nM | –
18 | CC(=O)N[C@@H]1C[C@H](C)[C@H](C/C=C(C)/C=C/[C@H]2O[C@](C)(O)C[C@@]3(CO3)[C@@H]2O)O[C@@H]1C | – | – | – | IC50 [2]: 1700 nM
19 | CC(=O)O[C@@H](C)/C=C\C(=O)N[C@@H]1C[C@H](C)[C@H](C/C=C(C)/C=C/[C@H]2OC(C)(C)C[C@@]3(CO3)[C@@H]2O)O[C@@H]1C | – | – | – | IC50 (HCT-116): 0.56 nM; IC50 (L1210): 0.44 nM; IC50 (HCT-116/VM46): 0.51 nM; GI50 (MCF7): 0.0102 nM

Row | Structure (SMILES) | IC50 (MES-SA/Dx5) | IC50 (MES-SA) | IC50 [3] | also measured
20 | CC(/C=C/[C@H]1O[C@H](CC(=O)NCCC(=O)O)C[C@@]2(CO2)[C@@H]1O)=C\C[C@@H]1O[C@H](C)[C@H](NC(=O)/C=C\[C@H](C)OC(=O)C(C)C)C[C@@H]1C | 74 nM | 4.58 nM | 1.44 nM | –
21 | CC(=O)O[C@@H](C)/C=C\C(=O)N[C@@H]1C[C@H](C)[C@H](C/C=C(C)/C=C/[C@H]2O[C@H](CC(=O)OC(C)(C)C)C[C@@]3(CO3)[C@@H]2O)O[C@@H]1C | 0.48 nM | 1.37 nM | 0.005 nM | –
22 | COC(=O)C[C@@H]1C[C@@]2(CO2)[C@H](O)[C@@H](/C=C/C(C)=C/C[C@@H]2O[C@H](C)[C@H](NC(=O)/C=C\[C@H](C)NC(=O)C(C)C)C[C@@H]2C)O1 | 384 nM | 6.16 nM | 0.058 nM | –
23 | CNC(=O)O[C@@H]1[C@@H](/C=C/C(C)=C/C[C@@H]2O[C@H](C)[C@H](NC(=O)/C=C\[C@H](C)OC(C)=O)C[C@@H]2C)O[C@H](OC)C[C@@]12CO2 | 76.1 nM | 76.7 nM | 10.1 nM | –
24 | CC(=O)O[C@H]1C(=O)[C@@]2(C)[C@H]([C@H](OC(=O)c3ccccc3)[C@]3(O)C[C@H](OC(=O)[C@H](O)[C@@H](NC(=O)c4ccccc4)c4ccccc4)C(C)=C1C3(C)C)[C@]1(OC(C)=O)CO[C@@H]1C[C@@H]2O [PACLITAXEL] | > 400 nM | 2.47 nM | 1.76 nM | –
25 | CC(=O)O[C@@H](C)/C=C\C(=O)N[C@@H]1C[C@H](C)[C@H](C/C=C(C)/C=C/[C@H]2O[C@](C)(O)CC3(CC3)[C@@H]2O)O[C@@H]1C | – | – | – | IC50 [2]: > 4000 nM
26 | CC(/C=C/[C@H]1O[C@H](C)C[C@@]2(CO2)[C@@H]1O)=C\C[C@@H]1O[C@H](C)[C@H](NC(=O)/C=C\[C@H](C)NC(=O)N(C)C)C[C@@H]1C | > 16 nM | 1.97 nM | 0.28 nM | –
27 | CC(=O)O[C@@H](C)/C=C\C(=O)N[C@@H]1C[C@H](C)[C@H](C/C=C(C)/C=C/[C@H]2O[C@@H](C)C[C@@]3(CO3)[C@@H]2O)O[C@@H]1C | – | – | – | IC50 [2]: 1.6 nM
28 | CC(/C=C/[C@H]1O[C@H](C)C[C@@]2(CO2)[C@@H]1O)=C\C[C@@H]1O[C@H](C)[C@H](NC(=O)/C=C\[C@H](C)NC(=O)N2CCCCC2)C[C@@H]1C | 64 nM | 3.19 nM | 0.041 nM | –
29 | CC(/C=C/[C@H]1OC(C)(C)C[C@@]2(CO2)[C@@H]1O)=C\C[C@@H]1O[C@H](C)[C@H](NC(=O)/C=C\[C@H](C)O)C[C@@H]1C | – | – | – | IC50 (HCT-116): 9.7 nM; IC50 (L1210): 0.54 nM; IC50 (HCT-116/VM46): 7.4 nM
30 | CC(/C=C/[C@H]1O[C@H](CC(=O)OC(C)(C)C)C[C@@]2(CO2)[C@@H]1O)=C\C[C@@H]1O[C@H](C)[C@H](NC(=O)/C=C\[C@H](C)OC(=O)C(C)C)C[C@@H]1C | 4.83 nM | 11.3 nM | 0.099 nM | –
31 | CO[C@@H]1C[C@@]2(CO2)[C@H](O)[C@@H](/C=C/C(C)=C/C[C@@H]2O[C@H](C)[C@H](NC(=O)/C=C\[C@H](C)OC(=O)N3CCOCC3)C[C@@H]2C)O1 | 13.8 nM | 0.49 nM | 0.006 nM | –
32 | C=C1C[C@@H](CC(=O)O)O[C@H](/C=C/C(C)=C/C[C@@H]2O[C@H](C)[C@H](NC(=O)/C=C\[C@H](C)OC(C)=O)C[C@@H]2C)[C@H]1O | > 1000 nM | > 1000 nM | > 1000 nM | –
33 | CC(=O)O[C@@H](C)/C=C\C(=O)N[C@@H]1C[C@H](C)[C@H](C/C=C(C)/C=C/[C@H]2OC3(CC3)C[C@@]3(CO3)[C@@H]2O)O[C@@H]1C | – | – | – | Ratio IC50 (HeLa): 2; IC50 [1]: 20 nM
34 | CO[C@@H]1C[C@@]2(CO2)[C@H](O)[C@@H](/C=C/C(C)=C/C[C@@H]2O[C@H](C)[C@H](NC(=O)/C=C\[C@H](C)OC(=O)N(C)C)C[C@@H]2C)O1 | 2.01 nM | 1.08 nM | 0.09 nM | –
35 | COC(=O)C[C@@H]1C[C@@]2(CO2)[C@H](O)[C@@H](/C=C/C(C)=C/C[C@@H]2O[C@H](C)[C@H](NC(=O)/C=C\[C@H](C)OC(C)=O)C[C@@H]2C)O1 | 3.6 nM | 0.32 nM | 0.36 nM | IC50 [1]: 400 nM
36 | CC(/C=C/[C@H]1O[C@H](CC(=O)OC2CC2)C[C@@]2(CO2)[C@@H]1O)=C\C[C@@H]1O[C@H](C)[C@H](NC(=O)/C=C\[C@H](C)OC(=O)C(C)C)C[C@@H]1C | 16.1 nM | 2.15 nM | 0.218 nM | –
37 | CC(=O)O[C@@H](C)/C=C\C(=O)N[C@@H]1C[C@H](C)[C@H](C/C=C(C)/C=C/[C@H]2O[C@H](CCO)C[C@@]3(CO3)[C@@H]2O)O[C@@H]1C | 3.21 nM | 0.072 nM | 0.007 nM | –
